The conditions of data set [1]: 293.15 K; 101.33 kPa; Liquid; Vibrating tube method.
Data set [2] is described as follows: refractive index (Na D-line) (dimensionless). The settings on record: 293.15 K; 101.33 kPa; Liquid; Standard Abbe refractometry.

± gives the expanded uncertainty stated by the source.

By mass density is commonly meant mass per unit of volume. By refractive index is commonly meant the speed of light in vacuum divided by its phase velocity in the sample.

Regarding `CC12CCC(CC1)C(C)(C)O2` [1,3,3-trimethyl-2-oxabicyclo[2.2.2]octane], the mass density in data set [1] came to 924.84 ± 2 kg/m3. Besides, the refractive index in data set [2] is given as 1.45756 ± 0.0011.

Consider `CCCCO` [butan-1-ol], for which the mass density in data set [1] amounted to 809.75 ± 2 kg/m3. In addition, in data set [2], the refractive index is listed as 1.39911 ± 0.001.

`CCO` [ethanol]: the mass density in data set [1] came out at 789.38 ± 2 kg/m3. For the same compound, the refractive index in data set [2] is on record as 1.36134 ± 0.001.

With `CO` [methanol], the mass density in data set [1] is 791.2 ± 2 kg/m3. The refractive index in data set [2] was determined as 1.32826 ± 0.001.

Regarding `CCCO` [propan-1-ol], the mass density in data set [1] came to 803.85 ± 2 kg/m3. Moreover, in data set [2], the refractive index is reported as 1.38461 ± 0.001.

For the origin of these results see the NIST ThermoML archive (doi:10.1016/j.jct.2016.06.010).
